Measured values taken from ChEMBL document CHEMBL4765227, “Hit to lead optimization of a series of N-[4-(1,3-benzothiazol-2-yl)phenyl]acetamides as monoacylglycerol lipase inhibitors with potential anticancer activity” (Eur J Med Chem, 2016).

What was measured:
Assay type in all cases: functional
Details in all cases: read-out: GI
[1] = system: CCRF-CEM; experiment: Growth inhibition of human CCRF-CEM cells at 10 uM incubated for 48 hrs by sulforhodamine B assay relative to control
[2] = system: HL-60(TB); experiment: Growth inhibition of human HL-60(TB) cells at 10 uM incubated for 48 hrs by sulforhodamine B assay relative to control
[3] = system: MOLT-4; experiment: Growth inhibition of human MOLT-4 cells at 10 uM incubated for 48 hrs by sulforhodamine B assay relative to control
[4] = system: RPMI-8226; experiment: Growth inhibition of human RPMI-8226 cells at 10 uM incubated for 48 hrs by sulforhodamine B assay relative to control
[5] = system: SR; experiment: Growth inhibition of human SR cells at 10 uM incubated for 48 hrs by sulforhodamine B assay relative to control
[6] = system: A549; experiment: Growth inhibition of human A549/ATCC cells at 10 uM incubated for 48 hrs by sulforhodamine B assay relative to control
[7] = system: HOP-62; experiment: Growth inhibition of human HOP-62 cells at 10 uM incubated for 48 hrs by sulforhodamine B assay relative to control
[8] = system: HOP-92; experiment: Growth inhibition of human HOP-92 cells at 10 uM incubated for 48 hrs by sulforhodamine B assay relative to control
[9] = system: NCI-H226; experiment: Growth inhibition of human NCI-H226 cells at 10 uM incubated for 48 hrs by sulforhodamine B assay relative to control
[10] = system: COLO 205; experiment: Growth inhibition of human COLO 205 cells at 10 uM incubated for 48 hrs by sulforhodamine B assay relative to control
[11] = system: HCC 2998; experiment: Growth inhibition of human HCC 2998 cells at 10 uM incubated for 48 hrs by sulforhodamine B assay relative to control
[12] = system: HCT-116; experiment: Growth inhibition of human HCT-116 cells at 10 uM incubated for 48 hrs by sulforhodamine B assay relative to control
[13] = system: HCT-15; experiment: Growth inhibition of human HCT-15 cells at 10 uM incubated for 48 hrs by sulforhodamine B assay relative to control
[14] = system: HT-29; experiment: Growth inhibition of human HT-29 cells at 10 uM incubated for 48 hrs by sulforhodamine B assay relative to control
[15] = system: SF-268; experiment: Growth inhibition of human SF-268 cells at 10 uM incubated for 48 hrs by sulforhodamine B assay relative to control
[16] = system: SF-295; experiment: Growth inhibition of human SF-295 cells at 10 uM incubated for 48 hrs by sulforhodamine B assay relative to control
[17] = system: SNB-19; experiment: Growth inhibition of human SNB-19 cells at 10 uM incubated for 48 hrs by sulforhodamine B assay relative to control
[18] = system: SNB-75; experiment: Growth inhibition of human SNB-75 cells at 10 uM incubated for 48 hrs by sulforhodamine B assay relative to control
[19] = system: U-251; experiment: Growth inhibition of human U-251 cells at 10 uM incubated for 48 hrs by sulforhodamine B assay relative to control
[20] = system: LOX IMVI; experiment: Growth inhibition of human LOX IMVI cells at 10 uM incubated for 48 hrs by sulforhodamine B assay relative to control
[21] = system: Malme-3M; experiment: Growth inhibition of human Malme-3M cells at 10 uM incubated for 48 hrs by sulforhodamine B assay relative to control
[22] = system: M14; experiment: Growth inhibition of human M14 cells at 10 uM incubated for 48 hrs by sulforhodamine B assay relative to control
[23] = system: SK-MEL-28; experiment: Growth inhibition of human SK-MEL-28 cells at 10 uM incubated for 48 hrs by sulforhodamine B assay relative to control
[24] = system: SK-MEL-5; experiment: Growth inhibition of human SK-MEL-5 cells at 10 uM incubated for 48 hrs by sulforhodamine B assay relative to control
[25] = system: UACC-257; experiment: Growth inhibition of human UACC-257 cells at 10 uM incubated for 48 hrs by sulforhodamine B assay relative to control
[26] = system: UACC-62; experiment: Growth inhibition of human UACC-62 cells at 10 uM incubated for 48 hrs by sulforhodamine B assay relative to control
[27] = system: IGROV-1; experiment: Growth inhibition of human IGROV-1 cells at 10 uM incubated for 48 hrs by sulforhodamine B assay relative to control
[28] = system: OVCAR-3; experiment: Growth inhibition of human OVCAR-3 cells at 10 uM incubated for 48 hrs by sulforhodamine B assay relative to control
[29] = system: OVCAR-4; experiment: Growth inhibition of human OVCAR-4 cells at 10 uM incubated for 48 hrs by sulforhodamine B assay relative to control
[30] = system: OVCAR-5; experiment: Growth inhibition of human OVCAR-5 cells at 10 uM incubated for 48 hrs by sulforhodamine B assay relative to control
[31] = system: NCI/ADR-RES; experiment: Growth inhibition of human NCI/ADR-RES cells at 10 uM incubated for 48 hrs by sulforhodamine B assay relative to control
[32] = system: SK-OV-3; experiment: Growth inhibition of human SK-OV-3 cells at 10 uM incubated for 48 hrs by sulforhodamine B assay relative to control
[33] = system: 786-0; experiment: Growth inhibition of human 786-0 cells at 10 uM incubated for 48 hrs by sulforhodamine B assay relative to control
[34] = system: ACHN; experiment: Growth inhibition of human ACHN cells at 10 uM incubated for 48 hrs by sulforhodamine B assay relative to control
[35] = system: CAKI-1; experiment: Growth inhibition of human CAKI-1 cells at 10 uM incubated for 48 hrs by sulforhodamine B assay relative to control
[36] = system: RXF 393; experiment: Growth inhibition of human RXF 393 cells at 10 uM incubated for 48 hrs by sulforhodamine B assay relative to control
[37] = system: TK-10; experiment: Growth inhibition of human TK-10 cells at 10 uM incubated for 48 hrs by sulforhodamine B assay relative to control
[38] = system: PC-3; experiment: Growth inhibition of human PC-3 cells at 10 uM incubated for 48 hrs by sulforhodamine B assay relative to control
[39] = system: DU-145; experiment: Growth inhibition of human DU-145 cells at 10 uM incubated for 48 hrs by sulforhodamine B assay relative to control
[40] = system: MCF7; experiment: Growth inhibition of human MCF7 cells at 10 uM incubated for 48 hrs by sulforhodamine B assay relative to control
[41] = system: Hs-578T; experiment: Growth inhibition of human Hs-578T cells at 10 uM incubated for 48 hrs by sulforhodamine B assay relative to control
[42] = system: BT-549; experiment: Growth inhibition of human BT-549 cells at 10 uM incubated for 48 hrs by sulforhodamine B assay relative to control
[43] = system: T47D; experiment: Growth inhibition of human T47D cells at 10 uM incubated for 48 hrs by sulforhodamine B assay relative to control
[44] = system: MDA-MB-468; experiment: Growth inhibition of human MDA-MB-468 cells at 10 uM incubated for 48 hrs by sulforhodamine B assay relative to control

`NS(=O)(=O)c1ccc(NCC(=O)Nc2ccc(-c3nc4ccccc4s3)cc2)cc1` gave an inhibition of growth at 10 µM [1] of 93.8%, an inhibition of growth at 10 µM [2] of 66.6% and an inhibition of growth at 10 µM [3] of 93.8%. It also gave an inhibition of growth at 10 µM [4] of 63.3%, an inhibition of growth at 10 µM [5] of 84% and an inhibition of growth at 10 µM [6] of 7.37%. The inhibition of growth at 10 µM [7] was -17.8%, the inhibition of growth at 10 µM [8] was 26.5% and the inhibition of growth at 10 µM [9] was 16.3%. For the same compound, the inhibition of growth at 10 µM [10] was 1.47%, the inhibition of growth at 10 µM [11] was 12.4% and the inhibition of growth at 10 µM [12] was 74.9%. The inhibition of growth at 10 µM [13] was 53.4%, the inhibition of growth at 10 µM [14] was 25.5% and the inhibition of growth at 10 µM [15] was 74.9%. It also gave an inhibition of growth at 10 µM [16] of 1.17%, an inhibition of growth at 10 µM [17] of 25.7% and an inhibition of growth at 10 µM [18] of 30.5%. For the same compound, the inhibition of growth at 10 µM [19] was 28.7%, the inhibition of growth at 10 µM [20] was 87% and the inhibition of growth at 10 µM [21] was 46.4%. For the same compound, the inhibition of growth at 10 µM [22] was 54.4%, the inhibition of growth at 10 µM [23] was 0.58% and the inhibition of growth at 10 µM [24] was 28.7%. The inhibition of growth at 10 µM [25] was 2.83%, the inhibition of growth at 10 µM [26] was 62% and the inhibition of growth at 10 µM [27] was 41%. For the same compound, the inhibition of growth at 10 µM [28] was 65.7%, the inhibition of growth at 10 µM [29] was 32.8% and the inhibition of growth at 10 µM [30] was -5.64%. For the same compound, the inhibition of growth at 10 µM [31] was 5.97%, the inhibition of growth at 10 µM [32] was -5.77% and the inhibition of growth at 10 µM [33] was 87.9%. It also gave an inhibition of growth at 10 µM [34] of -4.96%, an inhibition of growth at 10 µM [35] of 7.14% and an inhibition of growth at 10 µM [36] of 0.08%. For the same compound, the inhibition of growth at 10 µM [37] was -5.51%, the inhibition of growth at 10 µM [38] was 35.3% and the inhibition of growth at 10 µM [39] was 53%. It also gave an inhibition of growth at 10 µM [40] of 72.4%, an inhibition of growth at 10 µM [41] of 1.67% and an inhibition of growth at 10 µM [42] of 85.5%. For the same compound, the inhibition of growth at 10 µM [43] was 53.6% and the inhibition of growth at 10 µM [44] was 95.7%.
With `Cc1ccc(NCC(=O)Nc2ccc(-c3nc4ccccc4s3)cc2)cc1` the inhibition of growth at 10 µM [1] was 60.1%, the inhibition of growth at 10 µM [2] was 18.2% and the inhibition of growth at 10 µM [3] was 41.9%. The inhibition of growth at 10 µM [4] was 18.6%, the inhibition of growth at 10 µM [5] was 19.1% and the inhibition of growth at 10 µM [6] was 13.8%. For the same compound, the inhibition of growth at 10 µM [7] was 3.62%, the inhibition of growth at 10 µM [8] was 15.7% and the inhibition of growth at 10 µM [9] was 5.78%. For the same compound, the inhibition of growth at 10 µM [10] was -3.48%, the inhibition of growth at 10 µM [11] was 17% and the inhibition of growth at 10 µM [12] was 5.72%. For the same compound, the inhibition of growth at 10 µM [13] was 13.4%, the inhibition of growth at 10 µM [14] was -6.9% and the inhibition of growth at 10 µM [15] was 12.6%. The inhibition of growth at 10 µM [16] was -3.28%, the inhibition of growth at 10 µM [17] was 10.5% and the inhibition of growth at 10 µM [18] was -0.38%. The inhibition of growth at 10 µM [19] was 19.4%, the inhibition of growth at 10 µM [20] was 22.8% and the inhibition of growth at 10 µM [21] was -21.5%. It also gave an inhibition of growth at 10 µM [22] of 3.66%, an inhibition of growth at 10 µM [23] of -17.2% and an inhibition of growth at 10 µM [24] of 11.3%. The inhibition of growth at 10 µM [25] was 5.3%, the inhibition of growth at 10 µM [26] was 14.5% and the inhibition of growth at 10 µM [27] was 7.63%. It also gave an inhibition of growth at 10 µM [28] of 0.68%, an inhibition of growth at 10 µM [29] of 14.5% and an inhibition of growth at 10 µM [30] of -6.57%. For the same compound, the inhibition of growth at 10 µM [31] was 2.16%, the inhibition of growth at 10 µM [32] was -13.1% and the inhibition of growth at 10 µM [33] was 10.2%. The inhibition of growth at 10 µM [34] was -6.82%, the inhibition of growth at 10 µM [35] was 0.82% and the inhibition of growth at 10 µM [36] was 10.7%. For the same compound, the inhibition of growth at 10 µM [37] was -7.12%, the inhibition of growth at 10 µM [38] was 8.39% and the inhibition of growth at 10 µM [39] was 5.52%. The inhibition of growth at 10 µM [40] was 40.9%, the inhibition of growth at 10 µM [41] was -3.42% and the inhibition of growth at 10 µM [42] was 35.4%. The inhibition of growth at 10 µM [43] was 33.8% and the inhibition of growth at 10 µM [44] was 13%.
